Several values for one entry are separate records, joined by “and”; a condition that tells them apart may be missing. Equal values may be shown once.
Tests used:
[1] = test system: untransfected HEK293T cells; experiment: Whole-cell patch-clamp on untransfected HEK293T cell; type: cell-based, human; details: 100 μM CNS4
Protocol: Whole‐cell patch‐clamp electrophysiology studies were carried out in HEK‐293T cells expressing recombinant NMDA receptors that lack native functional NMDA receptors.[29], [30], [31] An equal quantity of (1 μg) cDNA for GluN1a, GluN2 subunits were co‐transfected 24‐48 h before patch‐clamp electrophysiology assay. […] Cells were carefully washed before performing experiments and were used for the electrophysiology experiments after 24 to 48 h incubation at 37°C with 5%CO2. The whole‐cell patch‐clamp electrophysiology assay was performed using semi‐automated patch‐clamp equipment, Port‐a‐Patch (Nanion Technologies GmbH). Following are the constituents of various solutions used for patch‐clamp electrophysiology: internal solution ([mM] NaCl 10, EGTA 20, CsF 110, HEPES 10), Mg‐free external (recording) solution ([mM] NaCl 140, KCl 4, CaCl2 2, HEPES 10, D‐GlucoseMonohydrate 5), and Mg‐free seal enhancer solution ([mM] NaCl 80, KCl 3, CaCl2 35, HEPES 10). Nanion NPC chips with […] resistance were used for the HEK‐293T cell recordings.
FIGURE 1 CNS4 sensitizes ambient concentration of agonists in GluN2 subunit dependent manner. […] Statistical significance was calculated from the Wilcoxon matched‐pairs signed rank test, except the comparison between 1/2A & 1/2AB CNS4 with no agonist data, which was done by unpaired t‐test. […]

[2] = test system: GluN1/2A/2B triheteromeric (1/2AB) NMDA receptors; experiment: TEVC agonist dose-response, Xenopus oocytes expressing 1/2AB; type: cell-based
From the text: (§1) NMDA receptor constructs: cDNA encoding the NMDA receptor1a subunit (GluN1a) was obtained from Dr. Nakanishi (Kyoto, Japan). cDNA encoding the GluN2B (pci_sepGluN2B), originally developed in the Malinow lab,[33] was purchased from Addgene (cat# 23998), Cambridge, MA. cDNA encoding the GluN2C and GluN2D were purchased from GenScript, New Jersey, USA. Mutated GluN1, 2A and 2B cDNA constructs capable of assembling as GluN1/2A/2B triheteromeric (1/2AB) receptors[34] were obtained from Dr. Paoletti (Laboratoire de Neurobiologie, CNRS). These constructs have been previously tested for 1/2AB receptor activity of GluN1/2A receptor‐selective potentiators.[35] […] Plasmids were linearized with NotI (GluN1a and all five GluN1 mutants) or Avrll (GluN2B), or BstB1 (GluN2C and GluN2D) and transcribed in vitro with T7 (GluN1a, GluN1/2A, GluN2B, GluN2C & GluN2D), and SP6 (GluN1 mutants) RNA polymerase using the mMessage mMachine transcription kits (Invitrogen by Thermo Fisher Scientific).
(§2) Stage IV frog oocytes were obtained from Xenopus‐I, (Ann Arbor, MI, USA). NMDA receptor subunit cRNAs were suspended in nuclease free sterile water. GluN1A, GluN2B, GluN2C, GluN2D and GluN1/2A/2B cRNAs were mixed in a ratio of 1:1–3. 50 nL of the final cRNA mixture was microinjected (40–70 ng total) into the oocyte cytoplasm. Oocytes were incubated in ND‐96 solution at 18°C prior to electrophysiological recordings (2–5 days).
(§3) Electrophysiological responses were measured using a standard two‐microelectrode voltage‐clamp workstation (Warner Instruments model OC‐725C) designed to provide a fast clamp of large cells. The recording buffer contained 116 mM NaCl, 2 mM KCl, 0.3 mM BaCl2, and 5 mM HEPES, pH 7.4. Response magnitude was determined in Xenopus oocytes expressing different NMDA receptor subunits (GluN1/2A, 1/2B, 1/2C, 1/2D, and 1/2A/2B) by the steady plateau response elicited by bath application of different agonist concentrations. […] All data points were obtained from the steady state currents unless stated otherwise. Dose–response relationships were fit to an appropriate curve‐fitting equation using GraphPad Prism‐7. Non‐linear regression was used to calculate EC50, IC50, and fold change or percentage maximal response. Curves were fit using the following equations as performed in the previous studies, [37]: Y=100/1+10^LogEC50−XorY=Bottom+Top−Bottom/1+10^LogEC50−X . Statistical significance was determined at the overall alpha level 0.05, using appropriate statistical methods as described in all figure captions. Technical and biological replicates are explicitly mentioned in each figure legend, as n = X (Y). X represents technical repeats (number of traces) and Y represents biological repeats (number of oocytes or HEK293T cells studied). […]

GluN1/2D NMDA receptors = target: T1, GluN1/2D NMDA receptors (UniProt O15399+P35439); experiment: TEVC agonist dose-response, Xenopus oocytes expressing 1/2D; type: cell-based
T1 construct: host or cells: Xenopus oocytes (cRNA injection)
T1 sequence (O15399 28-1336, other chains not shown): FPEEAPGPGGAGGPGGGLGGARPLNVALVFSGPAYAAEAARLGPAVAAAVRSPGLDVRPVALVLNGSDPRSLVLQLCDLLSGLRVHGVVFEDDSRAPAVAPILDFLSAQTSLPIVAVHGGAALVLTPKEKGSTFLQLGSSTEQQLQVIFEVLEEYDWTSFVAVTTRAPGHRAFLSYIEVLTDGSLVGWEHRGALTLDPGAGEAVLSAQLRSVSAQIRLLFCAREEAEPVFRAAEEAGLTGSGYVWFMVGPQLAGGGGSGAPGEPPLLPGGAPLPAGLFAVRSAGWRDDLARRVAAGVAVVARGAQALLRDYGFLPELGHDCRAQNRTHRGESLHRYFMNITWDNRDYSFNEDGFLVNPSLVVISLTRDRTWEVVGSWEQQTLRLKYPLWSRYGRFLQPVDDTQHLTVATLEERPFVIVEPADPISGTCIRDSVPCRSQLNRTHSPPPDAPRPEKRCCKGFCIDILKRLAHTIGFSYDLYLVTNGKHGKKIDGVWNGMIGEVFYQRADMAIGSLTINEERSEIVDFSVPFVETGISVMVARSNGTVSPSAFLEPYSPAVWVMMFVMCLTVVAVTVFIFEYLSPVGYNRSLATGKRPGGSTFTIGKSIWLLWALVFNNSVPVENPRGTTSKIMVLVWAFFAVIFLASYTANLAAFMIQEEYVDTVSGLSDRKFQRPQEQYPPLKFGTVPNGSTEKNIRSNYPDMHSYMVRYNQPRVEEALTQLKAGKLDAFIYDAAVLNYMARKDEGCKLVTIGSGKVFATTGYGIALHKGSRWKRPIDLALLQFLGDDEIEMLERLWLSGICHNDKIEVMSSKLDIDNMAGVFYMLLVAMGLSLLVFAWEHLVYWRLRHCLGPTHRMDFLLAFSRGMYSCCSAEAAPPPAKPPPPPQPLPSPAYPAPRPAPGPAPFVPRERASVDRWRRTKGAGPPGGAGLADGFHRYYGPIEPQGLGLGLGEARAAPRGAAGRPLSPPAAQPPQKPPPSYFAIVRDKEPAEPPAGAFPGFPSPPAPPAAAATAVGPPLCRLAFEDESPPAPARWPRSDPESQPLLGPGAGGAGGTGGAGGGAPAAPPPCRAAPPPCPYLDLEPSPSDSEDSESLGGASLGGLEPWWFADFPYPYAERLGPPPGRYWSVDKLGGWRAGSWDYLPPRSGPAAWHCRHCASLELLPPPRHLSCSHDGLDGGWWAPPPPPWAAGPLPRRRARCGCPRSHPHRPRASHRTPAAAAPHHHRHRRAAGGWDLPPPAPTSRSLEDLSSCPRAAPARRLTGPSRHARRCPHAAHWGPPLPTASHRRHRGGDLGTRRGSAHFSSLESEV
From the text: as §1, §2, §3

O=C(NC(=S)N1CCCCC1c1cccnc1)c1ccc(F)cc1 (centres unmarked) [CNS4]
Current response [1]: did not produce any measurable current response
Reduction in glutamate efficacy with vs without CNS4 ([2]; 30 μM CNS4): 5.3 fold
Glycine efficacy: relative fold change in current at highest glycine concentration ([2]; with 30 μM CNS4, 100 μM glutamate constant, relative to 1 μM glycine, p = .0019): 1.37 ± 0.08 fold
Glutamate efficacy: relative fold change in current at highest glutamate concentration ([2]; with 30 μM CNS4, 100 μM glycine constant, relative to 1 μM glutamate, p = .0001): 2.79 ± 0.43 fold
Effect on glutamate efficacy with vs without CNS4 (insignificant) (GluN1/2D NMDA receptors; 30 μM CNS4): 0.8 fold
Increase in glycine efficacy with vs without CNS4 (GluN1/2D NMDA receptors; 30 μM CNS4, 10 μM glycine): 1.89 fold and 1.9 fold
Glycine efficacy: relative fold change in current at highest glycine concentration (GluN1/2D NMDA receptors; with 30 μM CNS4, 10 μM glycine, 100 μM glutamate constant, relative to 100 nM glycine, p = .0014): 2.04 ± 0.19 fold
Glutamate efficacy: relative fold change in current at highest glutamate concentration (GluN1/2D NMDA receptors; with 30 μM CNS4, 100 μM glycine constant, relative to 100 nM glutamate, p = .1735): 6.90 ± 0.62 fold

Reference: paper PMC10245146, “CNS4 causes subtype‐specific changes in agonist efficacy and reversal potential of permeant cations in NMDA receptors” (Pharmacology Research & Perspectives, 2023)
